Measured values: patent US20200360317A1, “CARBOXYLIC ACIDS FOR TREATING/PREVENTING A SKIN DISEASE” (Proponent Biotech GmbH, priority 2016, published 2020)

Key:
[1] = system: allergic hypersensitivity induced by Nickel allergen (skin); assay: Nickel-induced allergic contact dermatitis, topical treatment, blinded clinical score of skin lesion; assay type: in vivo, human; settings: 4×140 μl of 50 mM Propionate in Locke-Ringer solution over 8 hours, 60 hours after last Nickel contact; vs Locke-Ringer control; n=2
Procedure: The study aimed at determining whether treatment with propionate promotes skin health following allergic hypersensitivity (particularly allergic contact dermatitis).
Allergic hypersensitivity was induced through contact sensitization with Nickel allergen over a 12 hour time period.
The sum of the four scores given blinded to each subject (n=2) yielded in the clinical score. The results can be seen in FIGS. 1 and 2.

[2] = system: wound infection of injured skin; assay: Treatment of infected wound of injured skin; assay type: in vivo; settings: skin treated with propionate vs skin treated with water
Excerpt: The study aimed at determining whether treatment with propionate promotes skin health of wound infection of injured skin.

[3] = in Locke-Ringer Solution
Excerpt: • Identification: Sodium propionate (Sigma-Aldrich, Cat. P5436-100G) • Test Item Name for Report: Sodium propionate • Description: Hygroscopic white powder • Batch Number: Lot.

CCC(=O)[O-].[Na+] [Sodium propionate]
Clinical score of skin lesion (sum of four scores) [1]: clinical score was significantly reduced
Appearance of skin lesions (FIG. 4) [2]: lesions are significantly reduced
Stability of Test Item in Solution [3]: ≥ 6 months
